Data as given in US10434057B2, “Cosmetic composition comprising osmanthus asiaticus extract and clematis apiifolia extract” (AMI COSMETIC CO., LTD., priority 2017, dated 2019).

Key:
[1] = Free radical scavenging activity by DPPH assay; format: biochemical; details: optical density at 540 nm; lower SC50 = higher activity
Experimental: Each of the extracts of Examples and Comparative Examples was suspended in purified water to evaluate a free radical scavenging activity of each of the extracts. A DPPH assay is a method of measuring an optical density at 540 nm to measure a level of discoloration caused by an inhibitor scavenging stable 2,2-diphenyl-1-picrylhydrazyl (DPPH) radicals. Vitamin C was used as the control, and a 50% scavenging concentration (SC50) of the DPPH radicals was measured. Then, the measured SC50 of the DPPH radicals was compared to that of the control (Table 3). In particular, the free radical scavenging activity of the sample of Example 1 at different concentrations was measured, and compared to that of the control (FIG. 1).

[2] = Free radical scavenging activity by ABTS assay; format: biochemical; details: measured at 732 nm; lower SC50 = higher activity
Experimental: Each of the extracts of Examples and Comparative Examples was suspended in purified water to evaluate a free radical scavenging activity of each of the extracts. […] Vitamin C was used as the control, and a 50% scavenging concentration (SC50) of the ABTS radicals was measured. Then, the measured SC50 of the ABTS radicals was compared to that of the control (Table 4). In particular, the free radical scavenging activities at different concentrations were measured in the case of Example 1, and compared to that of the control (FIG. 1).

women = experiment: Skin elasticity-improving effect of formulated creams (Cutometer MPA580); format: in vivo; details: cream around the eyes twice a day for 12 weeks; Cutometer MPA580 R8 value
Experimental: A skin elasticity-improving effect of the cosmetic composition including each of the samples obtained in Examples and Comparative Examples was evaluated. The respective samples were formulated into creams having the same compositions. In this case, only the samples of Examples 1 to 9 and Comparative Examples 1 to 12 differed. Healthy women over the age of 20 years old (with an average age of 37 years old) were divided into groups, and instructed to apply the formulated creams of Examples and Comparative Examples onto their faces under conditions of a temperature of 24 to 26° C. and a humidity of 75%. The formulated creams were applied around the eyes twice (morning and evening) a day for 12 weeks, and the skin elasticity was measured using a skin elastometer (Cutometer MPA580 commercially available from Courage+Khazaka Electronic GmbH, Germany). The test results were expressed as R8 (R8 (week 12)−R8 (week 0)) values of the Cutometer MPA580, and the R8 values represented properties such as skin viscoelasticity.

B16F10 cells = experiment: Melanin content assay (amount of produced melanin); format: cell-based; details: α-MSH stimulated, sample 200 μg/mL (50 mg/L), 48 hours, arbutin 200 μg/mL as control
Experimental: To check a whitening effect of the samples of Examples and Comparative Examples, an ability of the samples of Examples and Comparative Examples to inhibit melanogenesis was evaluated using a melanin content assay (Eisinger M et al., 1982; Siegrist W and Eberle A N, 1986). Each of the samples of Examples and Comparative Examples was suspended at a concentration of 50 mg/L in purified water, and an amount of produced melanin was determined.
B16F10 cells were seeded at a concentration of 1.5×10^5 cells/well in a 60 mm culture dish, and then cultured for 24 hours. A melanogenesis-stimulating hormone, α-MSH (Sigma-Aldrich, St. Louis, Mo., USA), and each of the samples of Examples and Comparative Examples were added to a medium at a concentration of 200 μg/mL (Virador V M et al., 1999).
After 48 hours had elapsed, the cells were harvested, and then washed once with PBS. Thereafter, 120 μL of a 1 N NaOH lysis buffer was added thereto, and the resulting mixture was heated at 95° C. for 10 minutes to lyse the cells. The optical density at a wavelength of 450 nm was measured using a microplate reader. Here, arbutin at a concentration of 200 μg/mL was used as the control (Table 6).
In particular, the melanin production rates at different concentrations were measured in the case of Example 1 (FIG. 1).

Row | SMILES | 50% Scavenging Concentration (SC50) of DPPH Radicals [1] | 50% Scavenging Concentration (SC50) of ABTS Radicals [2] | Skin elasticity-improving effect, R8 (week 12) − R8 (week 0) (women) | Melanin production rate (B16F10 cells)
1 | O=C1O[C@H]([C@@H](O)CO)C(O)=C1O [Control (Vitamin C), Vitamin C] | 8.7 µg/mL | 8.7 µg/mL | 0.92 | 
2 | OC[C@H]1O[C@@H](Oc2ccc(O)cc2)[C@H](O)[C@@H](O)[C@@H]1O [Positive control, arbutin] |  |  |  | 38.2%
